Assay [1] has as its system sulfotransferases (SULTs) in human intestinal S9. The assay is described as follows: Inhibition of hydroxycinnamic acid sulfation by flavonoids in human intestinal S9. Conditions: human intestinal S9 0.4 mg/mL, 30 min, 37° C. Type of assay: biochemical. As to the method:
(§1) The incubation mixture, in a final volume of 50 μL, consisted of 100 mM potassium phosphate buffer (pH 7.4), with 100 μM vitamin C, 100 μM PAPS and 1 mM DTT. Human liver S9 and intestinal S9 homogenates were used at 1 mg/mL and 0.4 mg/mL, respectively. The flavonoids were added from a 5 mM stock solution dissolved in DMSO, with final DMSO concentration equalized to 0.2%. Quercetin-3-glucuronide, quercetin-7-glucuronide and quercetin-3′-sulfate were dissolved in water. After a 15 min pre-incubation period, the reaction was initiated by adding 10 μM cinnamic acids and 25 μM dihydrocinnamic acids from a 50 mM stock solution in DMSO. To inhibit hydrolysis of quercetin glucuronides, in some analyses, 5 mM saccharolactone was added. After 30 min incubation in a 37° C. water bath, the reaction was stopped by addition of 10 μL ice-cold acetonitrile containing 500 mM HCl. Controls were treated under identical condition and consisted of samples with 0.2% DMSO (final concentration) added to the buffer. Samples were stored at −70° C. until analysis.
(§2) HPLC analyses were carried out using the Agilent 1200 series liquid chromatography system. For the analysis of caffeic acid, ferulic acid, isoferulic acid, dihydroferulic acid and their conjugates, chromatography was performed with a Zorbax XDB-C18 column (4.6×150 mm, 5 μm). The mobile phase consisted of 20 mM ammonium formate, pH 2.8 (A) and methanol (B). For the analysis of caffeic acid and conjugates, samples were eluted at 1 mL/min with 5% to 25% B in 20 min, followed by 80% B in 2 min and back to 5% B for 3 min. For the analysis of ferulic and isoferulic acid and their conjugates, the gradient was from 10% to 20% B in 10 min, to 60% B in 15 min, then set at 80% B for 2 min and back to 10% B for 3 min, at 1 mL/min. Dihydroferulic acid and conjugates analysis was carried out at 1 mL/min, from 10% to 20% B in 15 min, to 60% B in 10 min, up to 80% B for 2 min and finally to 10% B for 3 min. For dihydrocaffeic acid and conjugates, the analyses were performed with a Zorbax XDB-C18 column (4.6×50 mm, 1.8 μm) with 20 mM ammonium formate, pH 4.5 (A) and methanol (B) as the mobile phase. The gradient started at 3% (B) kept for 15 min, followed by an increase to 40% B in 5 min, and then returned to 3% B for 5 min. Samples were centrifuged and 25 μL of the supernatant were injected into the column. UV-detection carried out at 280 nm and 310 nm using photodiode array detector. Caffeic, ferulic and isoferulic acid were quantified at 310 nm, dihydroferulic acid and dihydrocaffeic acid at 280 nm.

Assay [2] concerns sulfotransferases (SULTs) in human liver S9. The assay is described as follows: Inhibition of hydroxycinnamic acid sulfation by flavonoids and quercetin conjugates in human liver S9. Type of assay: biochemical. On the procedure: as §1, §2
The subject of a further assay is HepG2 cells. Nature of the assay: Inhibition of caffeic acid and ferulic acid sulfation in HepG2 cells. Type of assay: cell-based, human. Conditions: caffeic and ferulic acids 10 μM, 4 h. On the procedure: HepG2 cells (ATCC) were routinely cultured in 75 cm^2 cell culture flasks at 37° C. under a humidified 5% CO2/O2 atmosphere. The culture media consisted of Eagle's Minimum Essential Medium (EMEM) media supplemented with 10% fetal bovine serum (Sigma-Aldrich) and 100 U/ml penicillin-streptomycin. All experiments were performed with HepG2 cells between passages 80 to 95. For metabolic studies, HepG2 cells were seeded into 12-well plates at a cell density of 2×10^5 per well. The cell monolayers were allowed to grow over 96 h before they were used for experiments. Hydroxycinnamic acid metabolism experiments were carried out in serum-free media with 100 μM vitamin C and 1.8 mM CaCl2, adjusted to pH 6.5. Cinnamic acids (10 μM) and dihydrocinnamic acids (25 μM) were added from a 50 mM stock solution in DMSO. […] 0.4 mL of hydroxycinnamic acids, with or without the inhibitors, were added to the HepG2 cells and incubated for 4 h at 37° C. The incubation media were then collected, acidified with 1 mM vitamin C and dried under vacuum. The residue was extracted by sonication for 5 min and vortex for 1 min, first with 500 μL acetonitrile, followed by 500 μL methanol. […]
HPLC analyses were carried out using the Agilent 1200 series liquid chromatography system. […] Caffeic, ferulic and isoferulic acid were quantified at 310 nm, dihydroferulic acid and dihydrocaffeic acid at 280 nm.

[3] abbreviates: 10 μM caffeic acid, read-out: IC50 for the inhibition of sulfation of Caffeic acid.
Where [4] appears, read: 10 μM ferulic acid, read-out: IC50 for the inhibition of sulfation of Ferulic acid.
Where [5] appears, read: human liver S9 1 mg/mL, 10 μM caffeic acid, 30 min, 37° C., flavonoids, read-out: IC50 for the inhibition of sulfation of Caffeic acid.
Setting [6] is: human liver S9 1 mg/mL, 10 μM ferulic acid, 30 min, 37° C., flavonoids, read-out: IC50 for the inhibition of sulfation of Ferulic acid.
[7] abbreviates: liver S9, 10 μM caffeic acid, quercetin conjugates dissolved in water, read-out: IC50 for the inhibition of sulfation of Caffeic acid.
The mark [8] stands for this setting: liver S9, 10 μM ferulic acid, quercetin conjugates dissolved in water, read-out: IC50 for the inhibition of sulfation of Ferulic acid.

SMILES strings stand for the structures. Like-named read-outs stand apart in the source and are kept apart here.

As to `Oc1cc(O)c2c(c1)O[C@H](c1ccc(O)c(O)c1)[C@@H](O)C2` [(+)-Catechin], the concentration for half-maximal inhibition (IC50) in assay [1] (setting [3]) worked out at 5.8 µM; in assay [1] (setting [4]), 7 µM; in assay [2] (setting [5]), 4.2 µM; in assay [2] (setting [6]), 4.4 µM.

Take `Oc1cc(O)c2c(c1)O[C@H](c1ccc(O)c(O)c1)[C@H](O)C2` [(−)-Epicatechin]: the IC50 was found to be 7.6 µM in assay [1] (setting [3]), 11 µM in assay [1] (setting [4]), 7.4 µM in assay [2] (setting [5]) and 7.3 µM in assay [2] (setting [6]).

On to `O=c1cc(-c2ccc(O)cc2)oc2cc(O)cc(O)c12` [Apigenin], for which the IC50 in assay [1] (setting [3]) amounted to 0.96 µM; in assay [1] (setting [4]), 2.3 µM; in assay [2] (setting [5]), 0.46 µM; in assay [2] (setting [6]) it was 0.88 µM.

On to `O=c1c(-c2ccc(O)cc2)coc2cc(O)ccc12` [Daidzein], for which the concentration for half-maximal inhibition (IC50) was 0.72 µM in assay [1] (setting [3]), 2.3 µM in assay [1] (setting [4]), 0.65 µM in assay [2] (setting [5]) and 0.62 µM in assay [2] (setting [6]).

Consider `O=c1c(-c2ccc(O)cc2)coc2cc(O)cc(O)c12` [Genistein], for which the IC50 in assay [1] (setting [3]) came to 0.77 µM; in assay [1] (setting [4]), 1.5 µM; in assay [2] (setting [5]) it was 0.59 µM; in assay [2] (setting [6]) it was 1 µM.

With `COc1ccc([C@@H]2CC(=O)c3c(O)cc(O)cc3O2)cc1O` [Hesperetin], the IC50 in assay [1] (setting [3]) is 3.5 µM; in assay [1] (setting [4]), 5.1 µM; in assay [2] (setting [5]) it was 4.3 µM; in assay [2] (setting [6]) it was 5.3 µM.

`COc1cc(-c2oc3cc(O)cc(O)c3c(=O)c2O)ccc1O` [Isorhamnetin]: the IC50 in assay [1] (setting [3]) amounted to 4.4 µM; in assay [1] (setting [4]) it was 4.7 µM; in assay [2] (setting [5]) it was 2 µM; in assay [2] (setting [6]), 3.7 µM.

Consider `O=c1c(O)c(-c2ccc(O)cc2)oc2cc(O)cc(O)c12` [Kaempferol], for which the 50% inhibitory concentration (IC50) in assay [1] (setting [3]) is 2.5 µM; in assay [1] (setting [4]), 3.8 µM; in assay [2] (setting [5]) it was 0.92 µM; in assay [2] (setting [6]), 3.9 µM.

On to `O=c1cc(-c2ccc(O)c(O)c2)oc2cc(O)cc(O)c12` [Luteolin], for which the 50% inhibitory concentration (IC50) in assay [1] (setting [3]) came out at 1.3 µM; in assay [1] (setting [4]), 3 µM; in assay [2] (setting [5]), 0.08 µM; in assay [2] (setting [6]) it was 0.53 µM. In the assay with HepG2 cells, the “Inhibitory effect on hydroxycinnamic acids sulfation” value is “inhibitory effect”.

As to `O=C(CCc1ccc(O)cc1)c1c(O)cc(O)cc1O` [Phloretin], the 50% inhibitory concentration (IC50) in assay [1] (setting [3]) is 0.84 µM; in assay [1] (setting [4]), 2.3 µM; in assay [2] (setting [5]) it was 0.99 µM; in assay [2] (setting [6]), 1 µM.

On to `O=C(O)[C@H]1O[C@@H](Oc2c(-c3ccc(O)c(O)c3)oc3cc(O)cc(O)c3c2=O)[C@H](O)[C@@H](O)[C@@H]1O` [Quercetin-3-glucuronide], for which the IC50 was 11 µM in assay [2] (setting [7]) and 12 µM in assay [2] (setting [8]).

`O=c1c(O)c(-c2ccc(O)c(OS(=O)(=O)O)c2)oc2cc(O)cc(O)c12` [Quercetin-3′-sulfate]: the half-inhibitory concentration (IC50) in assay [2] (setting [7]) was 6.6 µM; in assay [2] (setting [8]) it was 6.7 µM.

For the compound `O=C(O)[C@H]1O[C@@H](Oc2cc(O)c3c(=O)c(O)c(-c4ccc(O)c(O)c4)oc3c2)[C@H](O)[C@@H](O)[C@@H]1O` [Quercetin-7-glucuronide], the IC50 turned out to be 9.6 µM in assay [2] (setting [7]) and 8 µM in assay [2] (setting [8]).

As to `O=c1c(O)c(-c2ccc(O)c(O)c2)oc2cc(O)cc(O)c12` [Quercetin], the 50% inhibitory concentration (IC50) is 4.2 µM in assay [1] (setting [3]), 5.2 µM in assay [1] (setting [4]), 0.41 µM in assay [2] (setting [5]) and 0.64 µM in assay [2] (setting [6]). Also, in assay [2] (liver S9), the “Inhibition of sulfation of hydroxycinnamic acid, ranking in words” value is “most effective inhibitors”. In the assay on HepG2 cells, the “Inhibitory effect on hydroxycinnamic acids sulfation” value is reported as “inhibitory effect”.

For the origin of these results see patent US20140329904A1, “INCREASING THE BIOAVAILABILITY OF HYDROXYCINNAMIC ACIDS” (NESTEC S.A., priority 2011, published 2014).
